Measured values published in PubChem BioAssay AID488892 (Sanford-Burnham Center for Chemical Genomics, 2010).
The source made the active and inactive calls.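 Rule for the calls: active = mean IC50 below a set limit; inactive = the rest.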

Biological target: Alkaline phosphatase, placental type (Homo sapiens) (UniProt P05187)
Assay: inhibition of placental alkaline phosphatase – biochemical, uHTS hits, luminescence, selectivity assay for human IAP inhibitor project, dose response (AID 488892)
Details: purified PLAP, CDP-Star luminescence, 30 min

Row | IC50 | SMILES
1 | 8.64 µM | O=C1Nc2ccccc2/C1=N\N=C\c1ccc(O)c(O)c1
2 | 30.3 µM | c1ccc(CSCCc2ccncc2)cc1
3 | 14.7 µM | COc1ccc(C=C2C(=O)c3ccccc3C2=O)cc1O
4 | 11.5 µM | COc1ccc2nc3cc(Cl)ccc3c(Nc3cc(CN4CCCC4)c(O)c(CN4CCCC4)c3)c2n1
5 | 10.6 µM | C=CCN1C(=O)/C(=C\C=C2\N(C)c3ccccc3C2(C)C)SC1=S
6 | 28.2 µM | CCN1/C(=C\c2ccc3ccccc3[n+]2CC)Sc2cc(C)ccc21
7 | 44.8 µM | CC(C)=CCc1c(O)ccc2c1OC(c1ccc(O)c(O)c1)CC2=O (stereo not drawn)
8 | 37.8 µM | CC1=NN(Cc2ccccc2)C(=O)/C1=C\c1ccc(N(C)C)cc1
9 | 49 µM | CCN(CC)c1ccc(N=Nc2nn(C)c(C)c2[N+](=O)[O-])cc1
10 | 29.9 µM | Nc1ccc(-c2c3ccc(=O)cc-3oc3cc(O)ccc23)cc1C(=O)O
11 | 15.5 µM | COc1cc(/C=C(\C#N)C(=O)c2ccc(O)c(O)c2)cc(I)c1O
12 | 27.9 µM | CN(C)c1ccc(N=Nc2ccccc2Br)cc1
13 | 4.1 µM | CNc1nnc(-c2cc3ccccc3oc2=O)s1
14 | 10.8 µM | CC[n+]1c(/C=C/c2c[nH]c3ccccc23)ccc2cc(C)ccc21
15 | > 100 µM (inactive) | C/C(=N/Nc1ccccc1[N+](=O)[O-])c1ccc([N+](=O)[O-])cc1
16 | 5.59 µM | N#C/C(=C\c1ccc(O)c(O)c1)C(=O)c1ccc(O)c(O)c1
17 | 35.1 µM | CCOc1cc(/C=C2/C(=O)ON=C2C)cc(Br)c1O
18 | 2.71 µM | O=c1c2cc(O)c(O)cc2oc2cc(O)c(C3OC(CO)C(O)C(O)C3O)c(O)c12 (stereo not drawn)
19 | 30.3 µM | CN(C)c1ccc2nc3c(=O)[nH]c(=O)nc-3n(CC(O)C(O)C(O)CO)c2c1 (stereo not drawn)
20 | 18.4 µM | Oc1ccc(N=Nc2c(O)ccc3ccccc23)cc1
21 | 27.9 µM | O=C(NN1C(=O)/C(=C/c2ccc(O)c([N+](=O)[O-])c2)SC1=S)c1ccccc1Cl
22 | > 100 µM (inactive) | O=C1C2C3C=CC(C3)C2C(=O)N1c1n[nH]c(-c2cccnc2)n1 (stereo not drawn)
23 | 75.4 µM | O=C(/C=C/c1ccccc1O)c1ccco1
